Patent US20120046357A1, “Benzamide and Napthamide Derivatives Inhibiting Nuclear Factor-Kappa (B) - (NK-kB)” (Profectus Biosciences, Inc., priority 2009, published 2012)

What was measured:
[1] = molecular target: T1, p65 (RelA) (Homo sapiens, UniProt Q04206); test: TransAM NF-κB family DNA binding ELISA, p65; format: biochemical; conditions: binding to NF-κB consensus oligonucleotide
T1 construct: purchased Active Motif
Procedure: The binding activity of NF-κB heterodimer or homodimer subunits from activated nuclear extracts or purified recombinant NF-κB proteins exposed to the drug compounds was evaluated using the TransAM NF-κB Family binding ELISA (Active Motif). 3-5 μg of nuclear extracts from TNFα activated Hela or Raji cells (Active Motif) or 20 ng of purified recombinant proteins (p65 and p50 from Active Motif, p52 from Santa Cruz) were incubated for 1 hour at room temperature with 20 μL drug compounds diluted in Complete Lysis buffer without DTT. Treated samples were then transferred to 30 μL Complete Binding Buffer (with DTT) in microplate wells pre-coated with the NF-κB consensus oligonucleotide. […] The plate was incubated for 1 hour at room temperature with gentle shaking and then washed 3 times with 200 μL 1× Wash Buffer. NF-κB p65, p50, p52, RelB, or c-Rel subunits bound to the plate were detected with 100 μL of the primary antibody (diluted 1:1000 in 1× Antibody Buffer) specific for that subunit. The plate was incubated for 1 hour at room temperature and then washed 3 times with 200 μL 1× Wash Buffer. Next, 100 μL of a HRP conjugated goat anti-rabbit antibody (diluted 1:1,000 in 1× Antibody Buffer) was added to each well. The plate was incubated for 1 hour at room temperature and then washed 4 times with 200 μL 1× Wash Buffer. 100 μL of room temperature Developing Solution was added to each well. The reaction was allowed to develop for 2-10 minutes until a medium dark blue color developed (depending on the subunit activity in the lot of extract or lot of recombinant protein used) and then the reaction was stopped with 100 μL Stop Solution yielding a yellow color. Absorbance was recorded using a Becton-Dickinson DTX 880 Multimode Detector at 450 nm with a reference wavelength subtracted at 620 nm. FIGS. 2, 3 and 4 illustrate the effect of Example 10 on inhibiting RelA, RelB and c-Rel binding to NF-κB sites.

[2] = test system: NF-κB; test: NF-κB/293/GFP reporter cell assay (TNF-α induced GFP expression); format: cell-based; conditions: Homo sapiens, HEK293, 293 cells, pTRH1-NF-κB-dscGFP reporter, 2 h pretreatment, 20 ng/ml TNF-α 18 h; read-out: NF-KB/293/GFP EC50
Procedure: (§1) Two reporter cell assays were used to determine the ability of the compound of Example 10 to inhibit NF-κB driven transcription. The first assay was a 293-cell based assay with a stably integrated pNF-κB-luc reporter plasmid containing 3 NF-κB promoter elements. The second assay was a 293-cell based assay with a stably integrated pTRH1-NF-κB-dscGFP reporter containing 4 NF-κB promoter elements. Cells were treated with 0, 0.2, 1, 10, 20 and 40 μM of the compound of Example 10 for 2 hours then were induced with 20 ng/ml TNF-α for 18 hours. Following the induction, luminescence or fluorescence was quantified using a Beckman-Coulter 2300 plate reader. […] These values represent the median value generated from three independent experiments. As a control, 0.5% DMSO treated and untreated cells were compared to verify that the compound of Example 10 had no effect on the expression of luciferase or in the readout of the assay. There was a slight decrease in the output from the assay in the DMSO treated population although it was not statistically significant. As a result of the controls, the decrease in activity in the drug treated samples was compared to the DMSO control sample.

[3] = test system: IL-6 release from RAW264.7 cells; test: LPS-stimulated IL-6 release from RAW264.7 cells (ELISA); format: cell-based, mouse; conditions: Mus musculus, RAW264.7, RAW264.7 cells, 2 h pretreatment, 1 μg/mL LPS 20-24 h; read-out: RAW 264.7 IL-6 release EC50
Procedure: RAW 264.7 cells were seeded at 4×10^4 cells per well n complete growth medium in 96 well white TC plates with clear bottoms one day prior to the assay. The next day the cells were washed once and 100 μL fresh growth media was added. Cells were pretreated with 0.5 μL from a 6 point 200× dilution series of the test compounds in DMSO for 2 hours. Following pretreatment with the drugs, the inflammatory response was induced by adding 5 μL of a 20 μg/mL solution of LPS (Sigma). The cells were incubated in the presence of the drugs and 1 μg/mL LPS for another 20-24 hours. Typically after treatment the total DMSO was […] of the culture volume and the final concentrations of the compounds were approximately: 40, 20, 10, 1, 0.2 and 0 μM depending on the MW of each compound. Modified dilution series were prepared as needed to get adequate dose response curves without changing the % DMSO. Samples were run in duplicate or triplicate and included DMSO treated control wells with and without LPS stimulation. Drugs with a known activity such as Parthenolide or DHMEQ were run as experimental controls. After 20-24 hours LPS activation, the media supernatant was collected from the cells and replaced with fresh media. The supernatant samples were cleared by centrifugation at 1,000×g for 5 minutes, transferred to fresh storage plates, and stored frozen at −30° C.
After determining the appropriate supernatant dilutions experimentally, mIL-6 levels in the supernatants were quantified using Quantikine™ mouse IL-6 immunoassay (R&D Systems) according to the manufacturer's protocol. […] diluted in Calibrator Diluent were added to 50 μL of Assay Diluent in microplate wells pre-coated with an anti-mouse IL-6 capture antibody. Controls included a calibrated positive IL-6 control sample, non-specific binding (NSB) wells containing Calibrator Diluent but no IL-6, and a recombinant mouse IL-6 standard dilution series (10-1000 pg/mL). The plates were incubated at room temperature for 2 hours with shaking and then washed 5 times with 400 μL 1× Wash Buffer. […] anti-mouse IL-6 antibody was added to each well to detect IL-6 captured on the plate. The plates were incubated at room temperature for 2 hours and then washed 5 times with 400 μL 1× Wash Buffer. Equal volumes of Color Reagents A and B were mixed and 100 μL of this HRP Substrate Solution was added to each well on the plate. The blue color was allowed to develop for 30 minutes and then the reaction was stopped using 100 μL of Stop Solution yielding a yellow color. Absorbance at 450 nm with a reference wavelength subtracted at 595 nm was recorded using a Becton-Dickinson DTX 880 Multimode Detector.
The concentration of mIL-6 in the unknown samples was determined from a curve-fit of the mIL-6 standard absorbance data and multiplying by the dilution factor. The maximum activity achieved in the absence of the inhibitor (DMSO+LPS treated wells) was arbitrarily given a value of 100%; likewise the minimum activity in the absence of the stimulant (no LPS) was assigned a value of 0%. Inhibition of the amount of mIL-6 cytokine released in the drug treated wells was calculated relative to the maximum activation in the DMSO+LPS treated control wells (ie. % inhibition=100−(drug+LPS treated)/(DMSO+LPS treated)). Dose response curves were used to determine the effective concentration to inhibit 50% of the mIL-6 cytokine released (IC50) by means of a SigmaPlot macro which fits a sigmoidal dose-response curve to the (log 10) μM concentration versus % inhibition. […] This technique yields an objective value for the IC50 provided that 50% inhibition was approached at the concentrations tested. FIG. 5 illustrates the effect of the compound of Example 10 on inhibiting IL-6 release.

[4] = test system: NF-κB; test: 293/NFkB-luc reporter cell assay (TNF-α induced luciferase expression); format: cell-based; conditions: 293/NFkB-luc, 293 cells, pNF-κB-luc reporter, 2 h pretreatment, 20 ng/ml TNF-α 18 h
Procedure: as §1

T1 sequence (Q04206 whole entry): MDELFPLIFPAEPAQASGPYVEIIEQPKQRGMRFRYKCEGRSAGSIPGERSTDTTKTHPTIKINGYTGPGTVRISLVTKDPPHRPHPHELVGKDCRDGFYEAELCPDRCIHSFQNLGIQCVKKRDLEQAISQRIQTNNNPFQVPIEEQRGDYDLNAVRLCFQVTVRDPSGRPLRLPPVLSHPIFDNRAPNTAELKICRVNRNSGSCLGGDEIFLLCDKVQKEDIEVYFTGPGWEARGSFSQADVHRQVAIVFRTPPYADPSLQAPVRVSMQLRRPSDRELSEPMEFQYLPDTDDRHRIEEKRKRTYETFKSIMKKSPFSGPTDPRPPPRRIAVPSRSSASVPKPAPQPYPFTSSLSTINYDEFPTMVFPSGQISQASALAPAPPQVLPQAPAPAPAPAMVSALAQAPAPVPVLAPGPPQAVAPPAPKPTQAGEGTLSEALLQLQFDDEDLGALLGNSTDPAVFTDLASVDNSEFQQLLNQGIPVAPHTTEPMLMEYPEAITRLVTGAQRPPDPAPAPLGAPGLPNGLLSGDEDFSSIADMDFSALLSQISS

Row | IC50 [1] | EC50 [2] | EC50 [3] | EC50 [4] | Structure (SMILES)
1 | 8.7 µM | 9.2 µM | 1.7 µM | 21 µM | Cc1cc(Br)cc(C(=O)NC2=CC(=O)C3OC3C2O)c1O (racemic) [Example 13, (±)-5-bromo-2-hydroxy-N-(2-hydroxy-5-oxo-7-oxabicyclo[4.1.0]hept-3-en-3-yl)-3-methylbenzamide]
2 | 9.7 µM | 3.6 µM | 0.14 µM | 2.2 µM | O=C(NC1=CC(=O)C2OC2C1=O)c1c(O)ccc2ccccc12 (racemic) [Example 12, (±)-N-(2,5-dioxo-7-oxabicyclo[4.1.0]hept-3-en-3-yl)-2-hydroxy-1-naphthamide]
3 | 5.3 µM | 3.6 µM | 0.25 µM | 2.9 µM | Cc1cc(Br)cc(C(=O)NC2=CC(=O)C3OC3C2=O)c1O (racemic) [Example 14, (±)-5-bromo-N-(2,5-dioxo-7-oxabicyclo[4.1.0]hept-3-en-3-yl)-2-hydroxy-3-methylbenzamide]
4 | 26 µM | 3.1 µM | 0.58 µM | 2.1 µM | CN(C)c1ccc(C(=O)NC2=CC(=O)C3OC3C2=O)c(O)c1 (racemic) [Example 18, (±)-4-(dimethylamino)-N-(2,5-dioxo-7-oxabicyclo[4.1.0]hept-3-en-3-yl)-2-hydroxybenzamide]
